Here are results for four compounds from ChEMBL document CHEMBL1156792, “Application of the dipeptidyl peptidase IV (DPPIV/CD26) based prodrug approach to different amine-containing drugs” (J Med Chem, 2010).

Peptide text beside a SMILES is read from it. * marks the point of attachment. X2 = OC[C@H]1O[C@@H](n2cnc3c(N*)ncnc32)[C@@H](O)[C@@H]1O

This experiment addresses Dipeptidyl peptidase 4 (Homo sapiens) (UniProt P27487). As to the kind of experiment: Ratio of Vmax/Km for human recombinant CD26 assessed as hydrolysis.

Dipeptidyl peptidase 4 (Homo sapiens), sequence (P27487 whole entry, looked up): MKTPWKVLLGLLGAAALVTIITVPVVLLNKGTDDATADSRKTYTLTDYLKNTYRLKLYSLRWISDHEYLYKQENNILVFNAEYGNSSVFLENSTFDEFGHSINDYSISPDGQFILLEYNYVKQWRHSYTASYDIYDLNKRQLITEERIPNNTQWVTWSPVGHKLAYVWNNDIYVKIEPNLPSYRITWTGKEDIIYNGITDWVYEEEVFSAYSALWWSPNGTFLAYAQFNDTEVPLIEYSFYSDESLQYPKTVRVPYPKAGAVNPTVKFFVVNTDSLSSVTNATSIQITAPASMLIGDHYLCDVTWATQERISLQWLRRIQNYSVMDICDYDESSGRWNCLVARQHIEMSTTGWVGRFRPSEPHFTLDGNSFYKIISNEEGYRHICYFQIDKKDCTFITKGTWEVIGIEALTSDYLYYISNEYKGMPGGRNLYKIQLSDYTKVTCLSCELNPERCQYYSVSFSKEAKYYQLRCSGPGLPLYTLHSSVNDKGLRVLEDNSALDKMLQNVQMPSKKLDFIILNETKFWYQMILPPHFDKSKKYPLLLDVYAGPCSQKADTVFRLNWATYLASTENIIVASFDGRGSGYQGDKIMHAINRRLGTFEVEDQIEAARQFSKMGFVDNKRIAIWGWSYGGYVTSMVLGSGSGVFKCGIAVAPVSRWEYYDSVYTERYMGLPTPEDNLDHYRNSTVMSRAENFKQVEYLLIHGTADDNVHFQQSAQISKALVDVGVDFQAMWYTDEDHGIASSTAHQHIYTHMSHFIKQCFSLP

As to `N[C@@H](CC(=O)O)C(=O)N1CCC[C@H]1C(=O)Nc1ccc2ncccc2c1`, the Vmax/Km was found to be 0.13. For the compound `CC(C)[C@H](N)C(=O)N1CCC[C@H]1C(=O)Nc1ccc2ncccc2c1`, the Vmax/Km was 1.3.

With `CC(C)[C@H](N)C(=O)N1CCC[C@H]1C(=O)N[C@H](C(=O)N1CCC[C@H]1C(=O)Nc1ncnc2c1ncn2[C@@H]1O[C@H](CO)[C@@H](O)[C@@H]1O)C(C)C` (H-VPVP-X2), the Vmax/Km is 0.18. In the case of `COc1cccc2c1C(=O)c1c(O)c3c(c(O)c1C2=O)C[C@@](O)(C(=O)CO)C[C@@H]3O[C@H]1C[C@H](NC(=O)[C@@H]2CCCN2C(=O)[C@@H](N)C(C)C)[C@H](O)[C@H](C)O1`, the Vmax/Km was determined as 0.5.
